Data from patent US6774126B2, “Pyrrolo[1,2-b][1,2,4]oxadiazine diones useful as nitric oxide synthase inhibitors” (Pharmacia Corporation, priority 1998, dated 2004).

Test system: plasma nitrites induced by endotoxin (LPS)
Experiment: In Vivo Assay: Low Dose LPS, plasma nitrites in endotoxin-treated mice
Settings: LPS 12.5 mg/kg i.p., plasma nitrites 5 hours post-treatment
Description: In Vivo Assay Mice were treated with an intraperitoneal injection of 12.5 mg/kg of endotoxin (LPS) with or without oral administration of the nitric oxide synthase inhibitors. Plasma nitrites were measured 5 hours post-treatment.

SMILES	Low Dose LPS in vivo, inhibition of rise in plasma nitrites (compound 1 mg/kg p.o.) [% inh.]	Low Dose LPS in vivo, inhibition of rise in plasma nitrites (compound 10 mg/kg p.o.) [% inh.]	Low Dose LPS in vivo, inhibition of rise in plasma nitrites (compound 3 mg/kg p.o.) [% inh.]
O=c1onc2n1CCCCC2 [Example 1, 6,7,8,9-tetrahydro-3H,5H-[1,2,4]oxadiazolo[4,3-a]azepin-3-one]	23	72	–
NCCC1CCCCc2noc(=O)n21 (stereo not shown) [Example 3, 5-(2-aminoethyl)-6,7,8,9-tetrahydro-3H,5H-[1,2,4]oxadiazolo[4,3-a]azepin-3-one, mono(trifluoroacetate)]	–	64	33
